Measured values published in patent US8735601B2, “Pentamethine cyanine fluorescent dye with N-substituting at β-position of conjugated chain” (Dalian University of Technology, priority 2010, dated 2014).
One block for each molecule: values may come before it.

How the values were obtained:
[1] = Absorption and emission spectra of dyes in different solvents; format: physicochemical; parameters: key to Δλ1 / Δλ2: Stokes shift in nm; ε1 (molar extinction coefficient) / ε2 (molar extinction coefficient): scale not given here; conditions: for Δλ1: Stokes shift to absorption peak 1; for Δλ2: Stokes shift to absorption peak 2
Description: In the present invention, compounds IIa to IIg were synthesized based on compound II, and their spectral properties were investigated. Compared with the traditional pentamethine cyanine dye, for the novel pentamethine cyanine dye with N-substituting at β-position (deviated position), it was observed that, evident blue shift of absorption and emission wavelengths occurred, absorption wavelength blue shifted even largely than that of emission wavelength, absorption spectrum and fluorescence spectrum were no longer mirror-symmetric and had two absorption peaks and a single emission peak, and larger Stokes shift (minimum 60 and 150 nm, and maximum 90 and 230 nm) appeared.

[2] = Measurement of fluorescence quantum yield (Rhodamine B in ethanol as reference); format: physicochemical

Δλ1 ([1]; solvent DCM): 81
Δλ1 ([1]; solvent DMSO): 92
Δλ1 ([1]; solvent Ethanol): 89
Δλ1 ([1]; solvent Methanol): 88
Δλ1 ([1]; solvent THF): 86
Δλ1 ([1]; solvent Water): 101
Δλ2 ([1]; solvent DCM): 185
Δλ2 ([1]; solvent DMSO): 174
Δλ2 ([1]; solvent Ethanol): 179
Δλ2 ([1]; solvent Methanol): 174
Δλ2 ([1]; solvent THF): 170
Δλ2 ([1]; solvent Water): 188
ε1 (molar extinction coefficient) ([1]; solvent DCM): 2.8 cm^−1M
ε2 (molar extinction coefficient) ([1]; solvent DCM): 2.1 cm^−1M
λabs1 ([1]; solvent DCM): 522 nm
λbs2 ([1]; solvent DCM): 418 nm
λem ([1]; solvent DCM): 603 nm
ε1 (molar extinction coefficient) ([1]; solvent DMSO): 2.6 cm^−1M
ε2 (molar extinction coefficient) ([1]; solvent DMSO): 2.3 cm^−1M
λabs1 ([1]; solvent DMSO): 515 nm
λbs2 ([1]; solvent DMSO): 433 nm
λem ([1]; solvent DMSO): 607 nm
ε1 (molar extinction coefficient) ([1]; solvent Ethanol): 2.8 cm^−1M
ε2 (molar extinction coefficient) ([1]; solvent Ethanol): 2.3 cm^−1M
λabs1 ([1]; solvent Ethanol): 519 nm
λbs2 ([1]; solvent Ethanol): 429 nm
λem ([1]; solvent Ethanol): 608 nm
ε1 (molar extinction coefficient) ([1]; solvent Methanol): 2.7 cm^−1M
ε2 (molar extinction coefficient) ([1]; solvent Methanol): 2.2 cm^−1M
λabs1 ([1]; solvent Methanol): 517 nm
λbs2 ([1]; solvent Methanol): 431 nm
λem ([1]; solvent Methanol): 605 nm
ε1 (molar extinction coefficient) ([1]; solvent THF): 2.9 cm^−1M
ε2 (molar extinction coefficient) ([1]; solvent THF): 2.2 cm^−1M
λabs1 ([1]; solvent THF): 510 nm
λbs2 ([1]; solvent THF): 426 nm
λem ([1]; solvent THF): 596 nm
ε1 (molar extinction coefficient) ([1]; solvent Water): 2.3 cm^−1M
ε2 (molar extinction coefficient) ([1]; solvent Water): 1.9 cm^−1M
λabs1 ([1]; solvent Water): 516 nm
λbs2 ([1]; solvent Water): 429 nm
λem ([1]; solvent Water): 617 nm
Φ1 (fluorescence quantum yield) ([2]; solvent DCM): 0.106
Φ2 (fluorescence quantum yield) ([2]; solvent DCM): 0.075
Φ1 (fluorescence quantum yield) ([2]; solvent DMSO): 0.009
Φ2 (fluorescence quantum yield) ([2]; solvent DMSO): 0.008
Φ1 (fluorescence quantum yield) ([2]; solvent Ethanol): 0.019
Φ2 (fluorescence quantum yield) ([2]; solvent Ethanol): 0.017
Φ1 (fluorescence quantum yield) ([2]; solvent Methanol): 0.008
Φ2 (fluorescence quantum yield) ([2]; solvent Methanol): 0.007
Φ1 (fluorescence quantum yield) ([2]; solvent THF): 0.085
Φ2 (fluorescence quantum yield) ([2]; solvent THF): 0.075
Φ1 (fluorescence quantum yield) ([2]; solvent Water): 0.003
Φ2 (fluorescence quantum yield) ([2]; solvent Water): 0.001
Compound: CCN1/C(=C/C=C/C(=C/C2=[N+](CC)c3ccccc3C2(C)C)NCc2ccccc2)C(C)(C)c2ccccc21 [Dye IIe]

Compound: CCN1/C(=C/C=C/C(=C/C2=[N+](CC)c3ccccc3C2(C)C)Nc2ccccc2)C(C)(C)c2ccccc21 [Dye IIg]
Δλ1 ([1]; solvent DCM): 75
Δλ1 ([1]; solvent DMSO): 80
Δλ1 ([1]; solvent Ethanol): 77
Δλ1 ([1]; solvent Methanol): 77
Δλ1 ([1]; solvent THF): 83
Δλ1 ([1]; solvent Water): 81
Δλ2 ([1]; solvent DCM): 180
Δλ2 ([1]; solvent DMSO): 230
Δλ2 ([1]; solvent Ethanol): 206
Δλ2 ([1]; solvent Methanol): 208
Δλ2 ([1]; solvent THF): 236
Δλ2 ([1]; solvent Water): 200
ε1 (molar extinction coefficient) ([1]; solvent DCM): 3.6 cm^−1M
ε2 (molar extinction coefficient) ([1]; solvent DCM): 2.1 cm^−1M
λabs1 ([1]; solvent DCM): 570 nm
λbs2 ([1]; solvent DCM): 465 nm
λem ([1]; solvent DCM): 645 nm
ε1 (molar extinction coefficient) ([1]; solvent DMSO): 1.9 cm^−1M
ε2 (molar extinction coefficient) ([1]; solvent DMSO): 2.1 cm^−1M
λabs1 ([1]; solvent DMSO): 566 nm
λbs2 ([1]; solvent DMSO): 416 nm
λem ([1]; solvent DMSO): 646 nm
ε1 (molar extinction coefficient) ([1]; solvent Ethanol): 2.5 cm^−1M
ε2 (molar extinction coefficient) ([1]; solvent Ethanol): 2.0 cm^−1M
λabs1 ([1]; solvent Ethanol): 563 nm
λbs2 ([1]; solvent Ethanol): 434 nm
λem ([1]; solvent Ethanol): 640 nm
ε1 (molar extinction coefficient) ([1]; solvent Methanol): 2.3 cm^−1M
ε2 (molar extinction coefficient) ([1]; solvent Methanol): 2.2 cm^−1M
λabs1 ([1]; solvent Methanol): 561 nm
λbs2 ([1]; solvent Methanol): 430 nm
λem ([1]; solvent Methanol): 638 nm
ε1 (molar extinction coefficient) ([1]; solvent THF): 0.9 cm^−1M
ε2 (molar extinction coefficient) ([1]; solvent THF): 2.8 cm^−1M
λabs1 ([1]; solvent THF): 556 nm
λbs2 ([1]; solvent THF): 403 nm
λem ([1]; solvent THF): 639 nm
ε1 (molar extinction coefficient) ([1]; solvent Water): 1.7 cm^−1M
ε2 (molar extinction coefficient) ([1]; solvent Water): 2.2 cm^−1M
λabs1 ([1]; solvent Water): 559 nm
λbs2 ([1]; solvent Water): 440 nm
λem ([1]; solvent Water): 640 nm
Φ1 (fluorescence quantum yield) ([2]; solvent DCM): 0.064
Φ2 (fluorescence quantum yield) ([2]; solvent DCM): 0.055
Φ1 (fluorescence quantum yield) ([2]; solvent DMSO): 0.014
Φ2 (fluorescence quantum yield) ([2]; solvent DMSO): 0.002
Φ1 (fluorescence quantum yield) ([2]; solvent Ethanol): 0.019
Φ2 (fluorescence quantum yield) ([2]; solvent Ethanol): 0.006
Φ1 (fluorescence quantum yield) ([2]; solvent Methanol): 0.011
Φ2 (fluorescence quantum yield) ([2]; solvent Methanol): 0.004
Φ1 (fluorescence quantum yield) ([2]; solvent THF): 0.037
Φ2 (fluorescence quantum yield) ([2]; solvent THF): 0.0002
Φ1 (fluorescence quantum yield) ([2]; solvent Water): 0.003
Φ2 (fluorescence quantum yield) ([2]; solvent Water): 0.001
